US10183949B2, “Pyrimidinone derivative having autotaxin-inhibitory activity” (The University of Tokyo, priority 2014, dated 2019)
Read-outs that look alike come from different tables or passages of the source.

Target: T1, Human autotaxin enzyme (Homo sapiens, UniProt Q13822)
T1 construct: purchased R&D System
Assay: Evaluation of autotaxin inhibitor, 18:0 Lyso PC / choline assay (Test Example 2)
Format: biochemical
Procedure, shortened: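 Inhibition derived from concentration-dependent curves, scaled between no-compound (0%) and no-enzyme (100%) wells. Choline generated from 18:0 Lyso PC (200 μM stock) by human enzyme over 2 h at room temperature (Tris-HCl pH 7.5, NaCl, MgCl2, Triton X-100) read as resorufin fluorescence, 531/598 nm, after choline oxidase-peroxidase coupling.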

[1] = human autotaxin enzyme, 18:0 Lyso PC substrate, choline assay, room temperature 2 hours, read-out: Inhibitor activity (IC50)
[2] = autotaxin inhibition, IC50 class, read-out: Inhibitor activity

| SMILES | IC50 [1] | IC50 [2] |
| --- | --- | --- |
| NC(=O)C1CCN(C(=O)Cn2c(CCCC(F)(F)F)nc(-c3ccc(Cl)cc3)cc2=O)CC1 [Compound I-0118] | 0.01 to 0.1 µM | – |
| O=C1CCC(CNC(=O)c2cccc(Cn3c(CCCC(F)(F)F)nc(-c4ccc(Cl)cc4)cc3=O)c2)CN1 (centres unmarked) [Compound I-0196] | 0.01 to 0.1 µM | – |
| CC1(NC(=O)c2cccc(Cn3c(CCCC(F)(F)F)nc(-c4ccc(Cl)cc4)cc3=O)c2)COC1 [Compound I-0185] | 0.1 to 1 µM | – |
| O=C(NCCOCCO)c1cccc(Cn2c(CCCC(F)(F)F)nc(-c3ccc(Cl)cc3)cc2=O)c1 [Compound I-0162] | 0.1 to 1 µM | – |
| COC(=O)Nc1cc(Cl)ccc1-c1cc(=O)n(CC(=O)N2CC(C)(O)C2)c(C)n1 [Compound I-0411] | 0.1 to 1 µM | – |
| N#CC1(NC(=O)Cn2c(OCCC(F)(F)F)nc(-c3ccc(Cl)cc3)cc2=O)CC1 [Compound I-0242] | – | 0.1 to 1 µM |
| CCCCCNc1nc(-c2ccc(C#N)cc2)cc(=O)n1Cc1cccc(C(=O)O)c1 [Compound I-0022] | 0.01 to 0.1 µM | – |
| Cc1noc(CNC(=O)Cn2c(CCCC(F)(F)F)nc(-c3ccc(Cl)cc3)cc2=O)n1 [Compound I-0141] | 0.01 to 0.1 µM | – |
| Cc1nc(-c2ccc(Cl)cc2NC(=O)C(C)(C)C)cc(=O)n1CC(=O)NC1(C#N)CC1 [Compound I-0376] | 0.01 to 0.1 µM | – |
| O=C(N[C@H]1CC[C@H](O)CC1)c1cccc(Cn2c(CCCC(F)(F)F)nc(-c3ccc(Cl)cc3)cc2=O)c1 [Compound I-0174] | 0.1 to 1 µM | – |
| CCCCCc1nc(-c2ccc(Cl)cc2)cc(=O)n1CC(=O)NC1CCS(=O)(=O)CC1 [Compound I-0093] | 0.01 to 0.1 µM | – |
| CCCCCc1nc(-c2ccc(Cl)cc2)cc(=O)n1CC(=O)NCc1ccccc1 [Compound I-0034] | 0.1 to 1 µM | – |
| O=C(Cn1c(CCCC(F)(F)F)nc(-c2ccc(Cl)cc2)cc1=O)N1CCC(O)(CO)CC1 [Compound I-0130] | 0.01 to 0.1 µM | – |
| O=C(Cn1c(CCCC(F)(F)F)nc(-c2ccc(Cl)cc2)cc1=O)NCCN(CCO)CCO [Compound I-0146] | 0.1 to 1 µM | – |
| O=C(Cn1c(CCCC(F)(F)F)nc(-c2ccc(Cl)cc2)cc1=O)NCc1ccnc(O)c1 [Compound I-0142] | 0.1 to 1 µM | – |
| COC(=O)Nc1cc(Cl)ccc1-c1cc(=O)n(CC(=O)N(C)C2(C)COC2)c(C)n1 [Compound I-0274] | 0.01 to 0.1 µM | – |
| CCCCCc1nc(-c2ccc(Cl)cc2)cc(=O)n1CC(=O)NC1COC1 [Compound I-0028] | 0.01 to 0.1 µM | – |
| O=C(O)c1cccc(Cn2c(CCCC(F)(F)F)nc(-c3ccc(Cl)cc3)cc2=O)n1 [Compound I-0289] | 0.1 to 1 µM | – |
| CCOC(=O)c1noc(Cn2c(CCCC(F)(F)F)nc(-c3ccc(Cl)cc3)cc2=O)n1 [Compound I-0311] | 0.1 to 1 µM | – |
| CCCCCc1nc(-c2ccc(Cl)cc2)cc(=O)n1CC(=O)N1CCC(c2cccc(C(=O)O)c2)CC1 [Compound I-0053] | 0.01 to 0.1 µM | – |
| O=C1CCC(CNC(=O)Cn2c(CCCC(F)(F)F)nc(-c3ccc(C(F)(F)F)cc3)cc2=O)CN1 (centres unmarked) [Compound I-0343] | 0.1 to 1 µM | – |
| COC(=O)Nc1cc(C#N)ccc1-c1cc(=O)n(CC(=O)OC(C)(C)C)c(C)n1 [Compound I-0263] | < 0.01 µM | – |

| SMILES | IC50 [1] | IC50 [2] |
| --- | --- | --- |
| CC(C)(C)OC(=O)Cn1c(CCCC(F)(F)F)nc(-c2ccc(Cl)cc2)cc1=O [Compound I-0206] | < 0.01 µM | – |
| Cc1nc(-c2ccc(Cl)cc2NC(=O)C(C)(C)C)cc(=O)n1CCO [Compound I-0371] | ≥ 1 µM | – |
| N#CC1CCN(C(=O)Cn2c(CCCC(F)(F)F)nc(-c3ccc(C(F)(F)F)cc3)cc2=O)C1 (centres unmarked) [Compound I-0327] | 0.01 to 0.1 µM | – |
| O=C(Cn1c(CCCC(F)(F)F)nc(-c2ccc(C(F)(F)F)cc2)cc1=O)NCC1(CO)COC1 [Compound I-0337] | 0.01 to 0.1 µM | – |
| CCCCCc1nc(-c2ccc(Cl)cc2)cc(=O)n1CC(=O)NCCCO [Compound I-0030] | 0.1 to 1 µM | – |
| CCCCCc1nc(-c2ccc(Cl)cc2)cc(=O)n1CC(=O)NC1CCCNC1=O (centres unmarked) [Compound I-0082] | 0.1 to 1 µM | – |
| COC(=O)Nc1cc(Cl)ccc1-c1cc(=O)n(Cc2cccc(-c3nc(=O)o[nH]3)c2)c(C)n1 [Compound I-0379] | < 0.01 µM | – |
| O=C(Cn1c(CCCC(F)(F)F)nc(-c2ccc(C(F)(F)F)cc2)cc1=O)NCCc1nnc(-c2ccccc2)o1 [Compound I-0368] | 0.01 to 0.1 µM | – |
| COC(=O)Nc1cc(Cl)ccc1-c1cc(=O)n(CC(=O)NCC2CCC(=O)N2)c(C)n1 (centres unmarked) [Compound I-0437] | 0.01 to 0.1 µM | – |
| CNC(=O)C1CCN(C(=O)Cn2c(CCCC(F)(F)F)nc(-c3ccc(C(F)(F)F)cc3)cc2=O)CC1 [Compound I-0350] | 0.01 to 0.1 µM | – |
| CC(C)(C)OC(=O)Cn1c(CCC(F)(F)F)nc(-c2ccc(Cl)cc2)cc1=O [Compound I-0216] | 0.1 to 1 µM | – |
| COC(=O)Cn1c(CCCC(F)(F)F)nc(-c2ccc(Cl)cc2)cc1=O [Compound I-0109] | 0.01 to 0.1 µM | – |
| Cc1nc(-c2ccc(F)cc2NC(=O)C2CC2)cc(=O)n1CC(=O)NCC1(CO)COC1 [Compound I-0281] | 0.1 to 1 µM | – |
| N#CC1(NC(=O)Cn2c(CCCC(F)(F)F)nc(N3CCC(Cc4ccccc4)C3)cc2=O)CC1 (centres unmarked) [Compound I-0219] | 0.1 to 1 µM | – |
| COC(=O)Nc1cc(C#N)ccc1-c1cc(=O)n(CC(=O)NCC2CNC(=O)O2)c(C)n1 (centres unmarked) [Compound I-0430] | 0.01 to 0.1 µM | – |
| N#CCCN1CCN(C(=O)Cn2c(CCCC(F)(F)F)nc(-c3ccc(Cl)cc3)cc2=O)CC1 [Compound I-0136] | 0.1 to 1 µM | – |
| O=C(Cn1c(CCCC(F)(F)F)nc(-c2ccc(C(F)(F)F)cc2)cc1=O)NC1(c2nc(=O)o[nH]2)CC1 [Compound I-0387] | 0.01 to 0.1 µM | – |
| CCCCCc1nc(-c2ccc(Cl)cc2)cc(=O)n1CC(=O)NC1(C(=O)O)CCC1 [Compound I-0073] | < 0.01 µM | – |
| CN(C)C(=O)NC1CCN(C(=O)Cn2c(CCCC(F)(F)F)nc(-c3ccc(C(F)(F)F)cc3)cc2=O)CC1 [Compound I-0364] | 0.1 to 1 µM | – |
| O=C(Cn1c(CCCC(F)(F)F)nc(-c2ccc(C(F)(F)F)cc2)cc1=O)N1CCC(N2CCNC2=O)CC1 [Compound I-0362] | 0.01 to 0.1 µM | – |
| O=C(NCc1ccc(O)nc1)c1cccc(Cn2c(CCCC(F)(F)F)nc(-c3ccc(Cl)cc3)cc2=O)c1 [Compound I-0176] | 0.1 to 1 µM | – |
| O=C(Cn1c(CCCC(F)(F)F)nc(-c2ccc(C(F)(F)F)cc2)cc1=O)N1CCC(OCCO)CC1 [Compound I-0354] | 0.01 to 0.1 µM | – |

| SMILES | IC50 [1] | IC50 [2] |
| --- | --- | --- |
| CCCCCOc1nc(-c2ccc(Cl)cc2)cc(=O)n1CC(=O)NC(Cc1ccccc1)C(=O)O (centres unmarked) [Compound I-0152] | 0.01 to 0.1 µM | – |
| Cc1nc(-c2ccc(Cl)cc2NC(=O)C2CC2)cc(=O)n1CC(=O)NC(C)(C)CO [Compound I-0422] | 0.01 to 0.1 µM | – |
| CCCCCc1nc(-c2ccc(Cl)cc2)cc(=O)n1C [Compound I-0005] | ≥ 1 µM | – |
| O=C(Cn1c(CCCC(F)(F)F)nc(-c2ccc(Cl)cc2)cc1=O)N(CCO)CCO [Compound I-0117] | 0.01 to 0.1 µM | – |
| O=C(Cn1c(CCCC(F)(F)F)nc(-c2ccc(C(F)(F)F)cc2)cc1=O)NCC1CCO1 (centres unmarked) [Compound I-0318] | 0.01 to 0.1 µM | – |
| CCCCCc1nc(-c2ccc(Cl)cc2)cc(=O)n1CC(=O)NCCC(N)=O [Compound I-0031] | 0.1 to 1 µM | – |
| O=C(NCCS(=O)(=O)O)c1cccc(Cn2c(CCCC(F)(F)F)nc(-c3ccc(Cl)cc3)cc2=O)c1 [Compound I-0154] | 0.01 to 0.1 µM | – |
| CCCCCNc1nc(-c2ccc(C(F)(F)F)cc2)cc(=O)n1Cc1ccc(C(=O)NCC(N)=O)cc1 [Compound I-0019] | ≥ 1 µM | – |
| N#CCCCOc1nc(-c2ccc(Cl)cc2)cc(=O)n1CC(=O)NC(Cc1ccccc1)C(=O)O (centres unmarked) [Compound I-0116] | 0.01 to 0.1 µM | – |
| COC(=O)Nc1cc(Cl)ccc1-c1cc(=O)n(CC(=O)N2CCC(O)CC2)c(C)n1 [Compound I-0425] | 0.01 to 0.1 µM | – |
| CSc1nc(-c2ccc(Cl)cc2NC(=O)C2CC2)cc(=O)n1CC(=O)NC1(C#N)CC1 [Compound I-0295] | 0.01 to 0.1 µM | – |
| O=C(Cn1c(CCCC(F)(F)F)nc(C2=CCC(C(F)(F)F)CC2)cc1=O)NCC1(CO)COC1 (centres unmarked) [Compound I-0339] | 0.01 to 0.1 µM | – |
| Cc1nc(-c2ccc(Cl)cc2NC(=O)C(C)(C)C)cc(=O)n1CC(=O)N1CCC(O)CC1 [Compound I-0301] | 0.01 to 0.1 µM | – |
| COC(=O)Nc1cc(Cl)ccc1-c1cc(=O)n(CC(=O)N2CCC(C#N)CC2)c(C)n1 [Compound I-0433] | 0.01 to 0.1 µM | – |
| CCCCCc1nc(-c2ccc(Cl)cc2)cc(=O)n1CC(=O)N1CCOC(c2ccccc2)C1 (centres unmarked) [Compound I-0100] | 0.1 to 1 µM | – |
| CCOCCc1nc(-c2ccc(Cl)cc2)cc(=O)n1CC(=O)NCC(C)(C)O [Compound I-0222] | 0.1 to 1 µM | – |
| CCCCCc1nc(-c2ccc(Cl)cc2)cc(=O)n1CC(=O)N1CCC(C(=O)O)C1 (centres unmarked) [Compound I-0066] | ≥ 1 µM | – |
| N#CCCCn1c(-c2ccc(Cl)cc2)cc(=O)n(CC(=O)NC(Cc2ccccc2)C(=O)O)c1=O (centres unmarked) [Compound I-0115] | ≥ 1 µM | – |
| CCCCCNc1nc(-c2ccc(C#N)cc2)cc(=O)n1Cc1cccc(C(=O)OC(C)(C)C)c1 [Compound I-0021] | 0.1 to 1 µM | – |
| COC(=O)Nc1cc(Cl)ccc1-c1cc(=O)n(CC(=O)NC2(C)COC2)c(C)n1 [Compound I-0410] | < 0.01 µM | – |
| O=C(O)Cn1c(CCCC(F)(F)F)nc(-c2ccc(C(F)(F)F)cc2)cc1=O [Compound I-0255] | – | ≥ 1 µM |
